Test results from patent US12303520B2, “Aqueous nebulization composition” (Nephron Pharmaceuticals Corporation, priority 2017, dated 2025).

Key:
[1] = background statement, cited from earlier work
[2] = Solubility of budesonide in solvents; format: physicochemical
Description: Previous efforts to provide stable, inhalable budesonide solutions, including use of cyclodextrins or use of a modified budesonide, have not been proven pharmaceutically acceptable.

CCC[C@@H]1O[C@@H]2C[C@H]3C4CCC5=CC(=O)C=CC5(C)[C@H]4[C@@H](O)CC3(C)[C@]2(C(=O)CO)O1 (mixture of isomers) [Budesonide, (RS)-11-beta, 16-alpha, 17,21-tetrahydroxypregna-I, 4-diene-3,20-dione cyclic 16,17-acetal with butyraldehyde]
Solubility of budesonide in heptanes ([1]; heptanes): practically insoluble
Solubility of budesonide in alcohols ([1]; many alcohols (particularly polyhydric alcohols and organic, water-soluble glycols)): sparingly soluble
Solubility of budesonide in water ([1]; water): practically insoluble
Solubility of budesonide in pure glycerol [2]: not to be soluble
